Where two headings read alike, the source gives them in different places.
Test system: endocervical adenocarcinoma KB-3.1
Experiment: 5-day MTT cytotoxicity assay
Assay type: cell-based, human
Conditions: KB-3.1, 5-day MTT assay
Procedure: Cytotoxicity of compounds 1‒5 was initially determined against two cancer cell lines (mouse fibroblasts L-929 and human endocervical adenocarcinoma KB-3.1) by using a 5-day MTT assay according to an established procedure.
In 96-well flat-bottom microtiter plates, cell lines with serial dilution of the test compounds (final range: 37 to 0.6 × 10^−3 µg/mL) were incubated for five days. After five days, the cells were dyed using 3-(4,5-dimethyl-2-thiazolyl)-2,5-diphenyl-2H-tetrazolium bromide (MTT), which is only converted to its purple formazan derivative by living cells. The half-maximum inhibitory concentration (IC50 in µM) was calculated via the colorimetric method in a microplate reader using absorption at 595 nm. In addition, when an inhibition with an IC50 < 50 µM was observed, other cell lines were subjected to the test compounds to evaluate their further cytotoxicity: PC-3 (human prostate adenocarcinoma), SK-OV-3 (human ovary adenocarcinoma), MCF-7 (human breast adenocarcinoma), A-431 (human squamous carcinoma), and A549 (human lung carcinoma). A detailed procedure, including the colorimetric method to determine the cell viability, can be found in the SI.
Protocol: Cytotoxicity Assay
The assay was co nducted in 9 6-well flat -botto m microtiter plates using the parameters summarised in T able S2 and as described in [S2]. Cell l ines L-929 and KB-3.1 were incubated at 37 °C under 10 % CO2 in Gibco™ DMEM medium (T her mo Fisher Scientific, Waltham, M A, USA) supplemented with 10 % FBS. A microtiter plate was filled wit h 120 μ L o f this suspensio n (50,000/mL) in each well. Seperatel y, a nother microti ter plate wa s filled wit h 100 μL of gro wth medium in each well. Then, 50 μ L of the test compound solutions (1 mg/mL) were given to wells of the first column in two replicates (one compound per row). Cells without additives and MeOH were used as nega tive controls. Starting from the first column, 50 μ L of the solutions were gradually transferred to the next column, the contents thoroughly mixed, and 50 μL transferred to the following column. This created a serial dilution of the test compounds ranging from 333 μ g/mL to 1.9×10-3 μg/ mL. T he re mai ni ng 50 μ L after column twelve were discarded. From this microtiter plate, 60 μ L of the solutions fro m 111 μ g/mL to 1.9×10-3 μg/mL we r e give n to t he firs t p late co ntai ni ng 1 2 0 μ L of the cell suspensions (i.e. the highest co ncentration 333 μ g/ mL wa s no t used). T his resul ted in fi nal compo und concentratio ns rangi ng fro m 37 μ g/mL to 0.6×10-3 μg/ mL. After 5 days o f incubatio n under the aforementioned incubatio n conditions, the half maximu m inhibitory co ncentrations (IC50) were deter mined using a colorimetric tetrazolium d ye MT T assa y [S3]. For this, 20 μ L of a 5 mg/mL solution of 3-(4,5-dimethyl-2 -thiazolyl) -2,5-diphenyl-2H-tetrazolium br omide (MTT) were added to each well and incubated for two hours at 37 °C. T hen, the microtiter plate was ce ntrifuged (3,000 rpm, 5 min) and the supernatant removed by holding the plate upside-down and gentle shaking. Afterwards, the wells were washed using 100 μ L of phosphate buffered saline (PBS). T he plate was a gain ce ntrifuged a nd the supernata nt re mo ved as described before.
T hen, 1 0 0 μ L of an isopropanol:HCl solution (1L isopropanol+4 mL HCl 37 % w/v) were added to the wells. After incubating for 10 min at ambient temperature, the absorption of the wells at 595 nm was measured with an Infinite® 200 Pro microplate reader (TECAN, Männedorf, Schweiz). The absorption values of the cells without additives were averaged and set to 100 % cell viability. Then, the means of absorption of the two compound replicates were set in relation to the blank media. T hese percentage values were plotted against the concentratio n range (37 μ g/mL to 0.6×10−3 μg/ mL). T he IC50 value was r ead fro m the plot (in μ g/ mL) a nd the uni ts conversed […]
to μM. […]

| Compound | IC50 | IC50 (Homo sapiens, KB 3-1, 120 h, read-out: IC50) |
| --- | --- | --- |
| CC1=CC2CC(C)CCC2C2(C)C(=O)OC(C(=O)O)C(C)C12 (centres unmarked) [compound 3, Colposetin C] | not active | – |
| CC(=O)OC(C(=O)O)C(C)C1C(C)=CC2CC(C)CCC2C1(C)C(O)=C1C(=O)C(C)N(C)C1=O (centres unmarked) [compound 1, Colposetin A] | not active | – |
| CC(C=CCC(C)CCC=C(C)C(=O)C1=C(O)C(C)N(C)C1=O)=CC(C)C(O)C(=O)O (centres unmarked) [compound 4, Colpomenoic acid A] | not active | – |
| CCC(C(=O)O)C1C(C)=CC2CC(C)CCC2C1(C)C(O)=C1C(=O)C(C)N(C)C1=O (centres unmarked) [compound 2, Colposetin B] | – | 5.7 µM |
| CC(C=CCC(C)C=CC=C(C)C(=O)C1=C(O)C(C)N(C)C1=O)=CC(C)C(O)C(=O)O (centres unmarked) [compound 5, Colpomenoic acid B] | not active | – |

From PMC8224775, “Five Tetramic Acid Derivatives Isolated from the Iranian Fungus Colpoma quercinum CCTU A372” (Biomolecules, 2021)
